Test results published in patent US20260001875A1, “AMINOPYRIMIDINYL DERIVATIVES FOR THE TREATMENT OF PARKINSON'S DISEASE” (UNIVERSITY OF DUNDEE, priority 2022, published 2026).
Where two headings read alike, the source gives them in different places.

How the values were obtained:
LRRK2^WT = target: T1, LRRK2^WT (Mus musculus, UniProt Q5S006); assay: Western blot LRRK2 degradation in WT MEFs; assay type: cell-based; settings: for Dmax: read-out: Dmax on WT MEFs
T1 construct: endogenous in cells; host or cells: primary wild-type mouse embryonic fibroblasts (MEFs)
T1 sequence (Q5S006 whole entry): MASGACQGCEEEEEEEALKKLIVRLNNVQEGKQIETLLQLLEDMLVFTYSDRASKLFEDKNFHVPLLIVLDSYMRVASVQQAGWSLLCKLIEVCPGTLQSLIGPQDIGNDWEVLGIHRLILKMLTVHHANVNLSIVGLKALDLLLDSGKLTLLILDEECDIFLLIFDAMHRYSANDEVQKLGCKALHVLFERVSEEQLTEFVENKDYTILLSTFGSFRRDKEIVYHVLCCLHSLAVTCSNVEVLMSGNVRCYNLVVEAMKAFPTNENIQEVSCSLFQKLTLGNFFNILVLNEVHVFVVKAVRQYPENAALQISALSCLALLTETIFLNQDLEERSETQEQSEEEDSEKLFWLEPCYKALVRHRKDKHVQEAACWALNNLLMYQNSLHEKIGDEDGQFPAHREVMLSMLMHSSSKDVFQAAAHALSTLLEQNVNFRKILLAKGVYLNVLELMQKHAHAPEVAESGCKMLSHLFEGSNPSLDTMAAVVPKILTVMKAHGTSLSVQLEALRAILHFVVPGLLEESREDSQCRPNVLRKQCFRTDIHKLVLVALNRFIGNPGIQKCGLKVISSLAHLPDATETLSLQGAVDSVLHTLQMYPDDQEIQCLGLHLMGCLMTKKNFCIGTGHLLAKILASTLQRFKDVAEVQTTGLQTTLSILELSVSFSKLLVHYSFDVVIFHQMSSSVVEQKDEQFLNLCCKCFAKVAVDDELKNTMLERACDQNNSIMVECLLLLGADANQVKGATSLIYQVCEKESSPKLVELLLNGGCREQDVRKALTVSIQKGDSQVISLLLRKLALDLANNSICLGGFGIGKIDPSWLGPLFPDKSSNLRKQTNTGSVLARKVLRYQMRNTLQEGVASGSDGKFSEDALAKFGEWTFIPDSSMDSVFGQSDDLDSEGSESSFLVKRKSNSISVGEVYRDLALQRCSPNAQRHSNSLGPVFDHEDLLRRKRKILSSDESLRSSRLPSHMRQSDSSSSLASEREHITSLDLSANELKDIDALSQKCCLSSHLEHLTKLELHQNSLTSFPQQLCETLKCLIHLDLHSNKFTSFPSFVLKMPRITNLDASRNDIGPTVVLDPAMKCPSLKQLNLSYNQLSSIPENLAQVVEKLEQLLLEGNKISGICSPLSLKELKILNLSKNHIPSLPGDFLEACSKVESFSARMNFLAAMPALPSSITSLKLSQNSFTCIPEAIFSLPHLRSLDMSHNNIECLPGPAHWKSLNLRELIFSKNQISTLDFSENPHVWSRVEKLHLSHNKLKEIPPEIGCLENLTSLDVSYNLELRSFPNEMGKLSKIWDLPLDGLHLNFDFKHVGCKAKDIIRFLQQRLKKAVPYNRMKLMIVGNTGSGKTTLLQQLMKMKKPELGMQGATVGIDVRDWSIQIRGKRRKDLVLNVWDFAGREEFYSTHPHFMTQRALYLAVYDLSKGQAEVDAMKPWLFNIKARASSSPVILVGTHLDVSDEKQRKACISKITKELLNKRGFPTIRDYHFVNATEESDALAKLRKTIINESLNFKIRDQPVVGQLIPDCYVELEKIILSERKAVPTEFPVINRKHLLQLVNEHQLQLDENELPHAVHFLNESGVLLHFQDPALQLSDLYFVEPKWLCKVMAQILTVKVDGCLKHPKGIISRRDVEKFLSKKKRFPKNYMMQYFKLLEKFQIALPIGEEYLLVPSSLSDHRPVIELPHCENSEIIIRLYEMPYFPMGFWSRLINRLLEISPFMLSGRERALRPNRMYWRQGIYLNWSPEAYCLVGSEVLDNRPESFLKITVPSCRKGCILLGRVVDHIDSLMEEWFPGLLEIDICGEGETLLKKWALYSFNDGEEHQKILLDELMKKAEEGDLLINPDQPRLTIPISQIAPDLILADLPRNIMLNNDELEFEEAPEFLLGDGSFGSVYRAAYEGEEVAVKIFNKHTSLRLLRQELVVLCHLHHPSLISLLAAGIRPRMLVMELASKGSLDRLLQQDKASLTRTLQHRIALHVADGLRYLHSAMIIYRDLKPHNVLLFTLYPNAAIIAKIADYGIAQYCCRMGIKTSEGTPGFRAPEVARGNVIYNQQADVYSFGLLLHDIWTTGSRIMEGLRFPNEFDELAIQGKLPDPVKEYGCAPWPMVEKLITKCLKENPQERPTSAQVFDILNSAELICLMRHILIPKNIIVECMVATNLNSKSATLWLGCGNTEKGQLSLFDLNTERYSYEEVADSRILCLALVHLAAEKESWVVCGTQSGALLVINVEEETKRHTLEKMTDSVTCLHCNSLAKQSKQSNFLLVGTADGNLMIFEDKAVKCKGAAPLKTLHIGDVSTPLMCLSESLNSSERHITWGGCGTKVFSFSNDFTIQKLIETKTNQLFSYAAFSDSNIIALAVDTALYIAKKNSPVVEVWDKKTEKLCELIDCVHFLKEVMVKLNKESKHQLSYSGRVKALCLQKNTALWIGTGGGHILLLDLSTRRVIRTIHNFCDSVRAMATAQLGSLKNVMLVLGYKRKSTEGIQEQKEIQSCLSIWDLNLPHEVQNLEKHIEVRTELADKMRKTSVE
Method: (§1) Western blot degradation assays for the LRRK2 protacs were performed with WT and PD-associated LRRK2 [G2019S] mouse embryonic fibroblasts (MEFs). The second-generation PROTACs were tested in parallel with the first generation PROTACs SD75, SD82, and SD100. The compounds were tested at 33 nM or […] concentrations for 4 hours or 24 hours, running two biological replicates per condition and achieving quantifications representative of both replicates. Analysis by quantitative immunoblotting was performed with readouts of the total LRRK2 (antibody recognizes epitope in C-terminus of protein), Rab10 pThr73 (physiological substrate) and LRRK2 pSer935 (biomarker phosphorylation site).
(§2) Primary MEFs were generated as described in a previous study (Wiggin et al., Mol. Cell Biol. 2002 April; 22(8):2871-81.). Briefly, the uterine horn was collected from adult female mice at day E12.5 and transferred to a 10 cm tissue culture dish containing cold PBS. Two forceps were used to tear the yolk sacs to isolate each embryo. Forceps were cleaned thoroughly with 70% ethanol between each embryo isolation. The embryos were culled, and a tissue piece was collected in a PCR tube for genotyping. The red tissue of the embryo, which grows to become the heart and liver, was removed. The remainder of the embryo was minced with a scalpel blade and incubated with 7.5 ml trypsin-EDTA solution for 10 minutes in a 37° C. tissue culture CO2 incubator. The dish was removed from the incubator and checked under a light microscope for single cells. 7.5 ml complete media was added to the trypsinised cells, and the cell suspension was transferred to a 15 ml Falcon tube, centrifuged at 1200 rpm for 5 minutes at room temperature. The trypsin was aspirated, the cell pellet was resuspended in 5 ml fresh complete media, and the cell suspension was plated in a 60 mm tissue culture dish and incubated in a 37° C., 5% CO2 tissue culture incubator. The MEFs at this stage were considered as passage 0 and were passaged and expanded for experimental use once the genotype was confirmed by allelic sequencing and immunoblotting. MEFs were cultured in Dulbecco's modified Eagle medium (DMEM) containing 10% (v/v) fetal bovine serum (FBS), 2 mM L-glutamine, 100 U/ml penicillin, and 100 μg/ml streptomycin supplemented with 1× non-essential amino acids and 1 mM sodium pyruvate.
Culturing and passaging of adherent cell lines were carried out using aseptic technique in CL1 or CL2 (for PBMC isolation) biological safety cabinets. All cells were incubated in a 37° C. incubator with 5% CO2. Cell lines were regularly tested for mycoplasma contamination. For western blot assay, the cells were seeded in 6-well plates. After treating with testing compounds at indicated concentrations and time period, the media was removed and the cells were washed with PBS and lysed in 100 μl ice-cold complete lysis buffer containing 50 mM Tris-HCl pH 7.4, 1 mM EGTA, 10 mM 2-glycerophosphate, 50 mM sodium fluoride, 5 mM sodium pyrophosphate, 270 mM sucrose, supplemented with 1 μg/ml microcystin-LR, 1 mM sodium orthovanadate, complete EDTA-free protease inhibitor cocktail (Roche) and 1% (v/v) Triton X-100. The cells were immediately placed on ice and were scraped and collected into 1.5 ml Eppendorf tubes. Cell lysates were incubated on ice for 10 minutes prior to centrifugation at 15,000 g at 4° C. for 15 minutes. The cell pellet was discarded, and supernatant was collected for analysis by quantitative immunoblotting. For long term storage, the supernatant was flash frozen and stored at −80° C. Protein concentrations of cell lysates were determined using the Bradford assay.
Cell lysates containing a quarter of a volume of 4× NuPAGE LDS sample buffer (NP0007) supplemented with 5% β-mercaptoethanol, were heated at 95° C. for 5 minutes. […]

Rab10 pThr73 [1] = assay: Rab10 Thr73 dephosphorylation (immunoblot) in LRRK2^G2019S MEFs; assay type: cell-based, mouse; settings: Mus musculus; for inhibition at 1 µM: read-out: pRab10 inhibited in LRRK2^G2019S MEFs; for EC50: dose response, 4 h treatment, read-out: G2019S MEFs-pRab10-dephosphorylation EC50
LRRK2^G2019S = target: T2, LRRK2^G2019S (Mus musculus, UniProt Q5S006, G2019S); assay: Western blot LRRK2 degradation in LRRK2^G2019S MEFs; assay type: cell-based; settings: for Dmax: read-out: Dmax on G2019S MEFs
T2 construct: endogenous in cells; host or cells: LRRK2[G2019S] mouse embryonic fibroblasts (MEFs)
T2 sequence (Q5S006 whole entry G2019S): as the sequence (Q5S006 whole entry) above, with G2019S counted along it
Method: as §1, with “The” for “Western blot degradation assays for the LRRK2 protacs were performed with WT and PD-associated LRRK2 [G2019S] mouse embryonic fibroblasts (MEFs). The”
as §2
Culturing and passaging of adherent cell lines were carried out using aseptic technique in CL1 or CL2 (for PBMC isolation) biological safety cabinets. All cells were incubated in a 37° C. incubator with 5% CO2. Cell lines were regularly tested for mycoplasma contamination. For western blot assay, the cells were seeded in 6-well plates. […] The cells were immediately placed on ice and were scraped and collected into 1.5 ml Eppendorf tubes. Cell lysates were incubated on ice for 10 minutes prior to centrifugation at 15,000 g at 4° C. for 15 minutes. The cell pellet was discarded, and supernatant was collected for analysis by quantitative immunoblotting. For long term storage, the supernatant was flash frozen and stored at −80° C. Protein concentrations of cell lysates were determined using the Bradford assay.
Cell lysates containing a quarter of a volume of 4× NuPAGE LDS sample buffer (NP0007) supplemented with 5% β-mercaptoethanol, were heated at 95° C. for 5 minutes. 15 to 20 μg of samples were loaded onto pre-cast 4-12% Bis-Tris midi 20W or 26W gels (Thermofisher Scientific®, Cat #WG1402BOX or WG1403BOX) and resolved at 130 V for 2 hours with NuPAGE MOPS SDS running buffer (Thermofisher Scientific® Cat #NP0001-02). Proteins were electrophoretically transferred onto a 0.45 μm nitrocellulose membrane (GE Healthcare, Amersham Protran® Supported 0.45 mm NC) at 90 V for 90 min on ice in transfer buffer (48 mM Tris base and 39 mM glycine supplemented with 20% methanol). The transferred membrane was blocked with 5% (w/v) skim milk powder dissolved in tris-buffered saline with tween (TBS-T) (50 mM Tris base, 150 mM sodium chloride (NaCl), 0.1% (v/v) Tween-20) at room temperature for 1 hour.

Rab10 pThr73 [2] = assay: Rab10 Thr73 dephosphorylation (immunoblot) in WT MEFs; assay type: cell-based, mouse; settings: Mus musculus; for inhibition at 1 µM / inhibition at 0.033 µM: read-out: pRab10 inhibited in WT MEFs; for EC50: dose response, 4 h treatment, read-out: WT MEFs pRab10-dephosphrylation EC50
Procedure, shortened: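 Wild-type mouse embryonic fibroblasts in 6-well plates were treated with LRRK2 PROTACs, with two biological replicates per condition. Cells were washed in PBS and lysed on ice in buffer containing phosphatase and protease inhibitors plus 1% Triton X-100, then clarified at 15,000 g. Rab10 Thr73 phosphorylation was measured by quantitative immunoblotting of 15 to 20 μg protein on 4-12% Bis-Tris gels.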

Rab10 pThr73 [3] = assay: Rab10 Thr73 dephosphorylation (immunoblot) in LRRK2^G2019S MEFs; assay type: cell-based; settings: Mus musculus, read-out: pRab10 inhibited in LRRK2^G2019S MEFs

SMILES | DC50 (LRRK2^WT; dose response, 4 h treatment) [nM] | Dmax (LRRK2^WT; dose response, 4 h treatment) [%] | inhibition at 1 µM (Rab10 pThr73 [1]; 1 μM/4 h treatment) [%] | EC50 (Rab10 pThr73 [1]) [nM] | DC50 (LRRK2^G2019S; dose response, 4 h treatment) [nM] | Dmax (LRRK2^G2019S; dose response, 4 h treatment) [%] | inhibition at 1 µM (Rab10 pThr73 [2]; 1 μM/4 h treatment) [%] | EC50 (Rab10 pThr73 [2]) [nM] | Dmax (LRRK2^WT) [%] | inhibition at 1 µM (Rab10 pThr73 [1]; 1 μM/24 h treatment) [%] | Dmax (LRRK2^G2019S) [%] | inhibition at 0.033 µM (Rab10 pThr73 [3]; 33 nM/4 h treatment) [%] | inhibition at 0.033 µM (Rab10 pThr73 [3]; 33 nM/24 h treatment) [%] | inhibition at 0.033 µM (Rab10 pThr73 [2]; 33 nM/4 h treatment) [%] | inhibition at 0.033 µM (Rab10 pThr73 [2]; 33 nM/24 h treatment) [%] | inhibition at 1 µM (Rab10 pThr73 [2]; 1 μM/24 h treatment) [%]
CNc1nc(Nc2ccc(C(=O)N3CCN(C[C@H]4CO[C@H](CSC(C)(C)[C@@H](NC(=O)C5(F)CC5)C(=O)N5C[C@H](O)C[C@H]5C(=O)NCc5ccc(-c6scnc6C)cc5)CO4)CC3)cc2OC)ncc1Cl [XL02098, (2S,4R)-1-((S)-3-((((2S,5S)-5-((4-(4-((5-chloro-4-(methylamino)pyrimidin-2-yl)amino)-3-methoxybenzoyl)piperazin-1-yl)methyl)-1,4-dioxan-2-yl)methyl)thio)-2-(1-fluorocyclopropane-1-carboxamido)-3-methylbutanoyl)-4-hydroxy-N-(4-(4-methylthiazol-5-yl)benzyl)pyrrolidine-2-carboxamide] | 50 | 59 | 80 to 100 | 157 | 45 | 81 | 75 to 90 | 282 |  |  |  |  |  |  |  | 
CNc1nc(Nc2ccc(C(=O)N3CCN(C(=O)[C@H]4CC[C@H](CSC(C)(C)[C@H](NC(=O)C5(F)CC5)C(=O)N5C[C@H](O)CC5C(=O)NCc5ccc(-c6scnc6C)cc5)CC4)CC3)cc2OC)ncc1Cl (stereo partly drawn) [XL02068, (2S,4R)-1-((R)-3-((((1R,4R)-4-(4-(4-((5-chloro-4-(methylamino)pyrimidin-2-yl)amino)-3-methoxybenzoyl)piperazine-1-carbonyl)cyclohexyl)methyl)thio)-2-(1-fluorocyclopropane-1-carboxamido)-3-methylbutanoyl)-4-hydroxy-N-(4-(4-methylthiazol-5-yl)benzyl)pyrrolidine-2-carboxamide] | 93 |  | 10 to 100 | 150 | 103 |  | 80 to 100 | 272 | 89 | 80 to 100 | 87 | 0 to 90 | 30 to 90 | 0 to 70 | 0 to 80 | 80 to 100
CNc1nc(Nc2ccc(C(=O)N3CCN(C[C@H]4CC[C@H](CSC(C)(C)[C@H](NC(=O)C5(F)CC5)C(=O)N5C[C@H](O)CC5C(=O)NCc5ccc(-c6scnc6C)cc5C)CC4)CC3)cc2OC)ncc1Cl (stereo partly drawn) [XL02048, (2S,4R)-1-((R)-3-((((1R,4R)-4-((4-(4-((5-chloro-4-(methylamino)pyrimidin-2-yl)amino)-3-methoxybenzoyl)piperazin-1-yl)methyl)cyclohexyl)methyl)thio)-2-(1-fluorocyclopropane-1-carboxamido)-3-methylbutanoyl)-4-hydroxy-N-(2-methyl-4-(4-methylthiazol-5-yl)benzyl)pyrrolidine-2-carboxamide] | 46 | 81.5 | 10 to 100 | 53 | 23 | 83.5 | 80 to 100 | 72 |  | 80 to 100 |  | 0 to 90 | 30 to 90 | 0 to 70 | 0 to 80 | 80 to 100
CNc1nc(Nc2ccc(C(=O)N3CCN(CCCN4CCN(c5ccc6c(c5)C(=O)N(C5CCC(=O)NC5=O)C6=O)CC4)CC3)cc2OC)ncc1Cl (stereo not shown) [SD11, 5-(4-(3-(4-(4-((5-chloro-4-(methylamino)pyrimidin-2-yl)amino)-3-methoxybenzoyl)piperazin-1-yl)propyl)piperazin-1-yl)-2-(2,6-dioxopiperidin-3-yl)isoindoline-1,3-dione] |  |  | 30 to 95 |  |  |  | 18 to 90 |  |  | 30 to 100 |  | 0 to 60 | 0 to 70 | 0 to 25 | 10 to 40 | 30 to 90
CNc1nc(Nc2ccc(C(=O)N3CCN(CCOCCOCCSC(C)(C)[C@H](NC(=O)C4(F)CC4)C(=O)N4C[C@H](O)C[C@H]4C(=O)NCc4ccc(-c5scnc5C)c(F)c4)CC3)cc2OC)ncc1Cl [XL01123, (2S,4R)-1-((R)-3-((2-(2-(2-(4-(4-f((5-chloro-4-(methylamino)pyrimidin-2-yl)amino)-3-methoxybenzoyl)piperazin-1-yl)ethoxyl)ethoxy)ethyl)thio)-2-(1-fluorocyclopropane-1-carboxamido)-3-methylbutanoyl)-N-(3-fluoro-4-(4-methylthiazol-5-yl)benzyl)-4-hydroxypyrrolidine-2-carboxamide] |  |  | 20 to 100 |  |  |  | 10 to 95 |  |  | 10 to 100 |  | 0 to 70 | 0 to 90 | 0 to 40 | 0 to 60 | 30 to 100
